Reference: patent US12441733B2, “Substituted 2,4-dioxotetrahydropyrimidines as intermediates in the synthesis of bruton's tyrosine kinase inhibitors” (Novartis AG, priority 2018, dated 2025)
Where two headings read alike, the source gives them in different places.

Assays:
Format in all cases: cell-based
[1] = target: T1, BTK-GFP (Homo sapiens, UniProt Q06187+Q96SW2); assay: BTK-GFP protein abundance flow cytometry assay in HEK293A cells; settings: HEK293A BTK-GFP-iresRFP cells, 24 h; for DC50: GFP signal by flow cytometry, concentration at which 50% maximal degradation was observed; for BTK deg Amax: % protein remaining at the concentration at which maximum degradation is seen
T1 construct: expressed in transfected cells; host or cells: HEK293A (Invitrogen R70507), lentiviral transduction with pLenti6-BTK-GFP-Ires-RFP, blasticidin selection
T1 sequence (Q06187 whole entry): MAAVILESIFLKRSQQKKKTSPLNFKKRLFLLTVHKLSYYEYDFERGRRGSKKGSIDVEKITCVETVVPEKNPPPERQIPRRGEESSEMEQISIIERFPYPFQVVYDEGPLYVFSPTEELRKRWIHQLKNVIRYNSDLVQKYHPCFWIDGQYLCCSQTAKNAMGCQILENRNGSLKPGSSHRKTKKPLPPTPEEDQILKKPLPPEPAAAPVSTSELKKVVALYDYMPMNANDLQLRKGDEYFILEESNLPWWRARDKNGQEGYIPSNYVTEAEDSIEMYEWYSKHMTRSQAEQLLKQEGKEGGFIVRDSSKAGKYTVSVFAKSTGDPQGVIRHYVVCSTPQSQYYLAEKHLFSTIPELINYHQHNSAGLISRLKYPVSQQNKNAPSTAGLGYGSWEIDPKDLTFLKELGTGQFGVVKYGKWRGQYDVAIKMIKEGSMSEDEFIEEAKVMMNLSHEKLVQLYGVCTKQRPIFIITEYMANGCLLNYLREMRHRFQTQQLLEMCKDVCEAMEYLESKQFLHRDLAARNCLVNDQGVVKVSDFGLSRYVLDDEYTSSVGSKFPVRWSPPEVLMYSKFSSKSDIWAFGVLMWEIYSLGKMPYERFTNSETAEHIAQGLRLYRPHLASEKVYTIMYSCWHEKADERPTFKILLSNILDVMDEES
T1 sequence (Q96SW2 whole entry): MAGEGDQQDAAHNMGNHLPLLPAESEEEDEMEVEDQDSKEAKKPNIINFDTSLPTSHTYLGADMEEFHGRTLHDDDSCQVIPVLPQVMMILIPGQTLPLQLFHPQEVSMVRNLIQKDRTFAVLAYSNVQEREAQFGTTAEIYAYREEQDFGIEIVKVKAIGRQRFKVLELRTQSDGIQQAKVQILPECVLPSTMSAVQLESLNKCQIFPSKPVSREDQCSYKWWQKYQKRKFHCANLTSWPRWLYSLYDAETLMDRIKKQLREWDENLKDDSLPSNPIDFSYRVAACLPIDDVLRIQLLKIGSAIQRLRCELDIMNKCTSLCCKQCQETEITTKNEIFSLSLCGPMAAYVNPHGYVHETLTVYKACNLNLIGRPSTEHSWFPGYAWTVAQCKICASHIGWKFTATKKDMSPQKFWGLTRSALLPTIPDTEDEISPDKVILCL
T1 sequence (Q16531 whole entry partner): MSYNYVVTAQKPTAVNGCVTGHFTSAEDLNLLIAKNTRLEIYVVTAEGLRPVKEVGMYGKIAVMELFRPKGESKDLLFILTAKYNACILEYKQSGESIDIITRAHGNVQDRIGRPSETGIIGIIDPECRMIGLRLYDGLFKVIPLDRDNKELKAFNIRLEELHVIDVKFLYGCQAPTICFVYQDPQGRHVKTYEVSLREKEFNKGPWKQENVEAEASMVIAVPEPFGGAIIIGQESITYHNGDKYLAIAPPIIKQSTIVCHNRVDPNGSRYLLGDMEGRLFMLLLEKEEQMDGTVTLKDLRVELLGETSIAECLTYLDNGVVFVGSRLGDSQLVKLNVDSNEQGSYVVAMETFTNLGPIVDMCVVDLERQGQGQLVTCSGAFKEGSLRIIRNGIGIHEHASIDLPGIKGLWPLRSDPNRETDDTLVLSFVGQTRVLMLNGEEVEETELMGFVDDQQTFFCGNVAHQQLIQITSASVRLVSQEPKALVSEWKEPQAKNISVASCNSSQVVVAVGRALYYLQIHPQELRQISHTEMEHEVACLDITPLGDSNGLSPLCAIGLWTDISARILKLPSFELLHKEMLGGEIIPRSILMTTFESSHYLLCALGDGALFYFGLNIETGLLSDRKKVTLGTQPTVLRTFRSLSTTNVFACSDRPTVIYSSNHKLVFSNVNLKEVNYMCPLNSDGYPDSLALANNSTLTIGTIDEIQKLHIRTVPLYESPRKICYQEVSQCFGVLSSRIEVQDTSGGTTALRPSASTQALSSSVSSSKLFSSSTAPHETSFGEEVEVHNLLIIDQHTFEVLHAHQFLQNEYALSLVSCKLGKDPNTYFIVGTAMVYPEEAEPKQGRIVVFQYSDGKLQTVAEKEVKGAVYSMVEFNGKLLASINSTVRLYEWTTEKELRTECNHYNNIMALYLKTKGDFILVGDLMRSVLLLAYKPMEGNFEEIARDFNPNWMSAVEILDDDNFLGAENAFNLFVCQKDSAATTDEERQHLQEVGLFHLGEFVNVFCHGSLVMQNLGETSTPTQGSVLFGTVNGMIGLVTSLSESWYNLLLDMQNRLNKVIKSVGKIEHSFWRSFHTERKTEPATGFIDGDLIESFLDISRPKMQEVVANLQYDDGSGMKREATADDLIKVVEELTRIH
Method in brief: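 HEK293A cells stably expressing bicistronic BTK-GFP-IRES-RFP (C-terminal GFP tag) via lentiviral vector. Degradation read by flow cytometry as loss of GFP signal after degrader treatment. DC50 is concentration giving 50% maximal degradation; Amax is % protein remaining at maximal degradation.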

[2] = test system: TMD8 cells; assay: Resazurin cell viability (proliferation) assay in TMD8 DLBCL cells; settings: TMD8 cells (BTK dependent), 72 h, 50% growth inhibition vs vehicle, read-out: TMD8 Prol GI50
Method in brief: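 TMD8 cells were seeded at 1×10^4 per well and treated 3 h later with compound, in an 8-point 1:4 dilution series starting at 1 μM, or DMSO, for 72 h at 37° C. Resazurin was added at 13 μg/ml final for the last 2 h, and fluorescence was read at ex 530/em 600 nm. GI50 versus vehicle was derived by curve fitting from triplicates.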

[3] = test system: OCI-LY3 cells; assay: Resazurin cell viability (proliferation) assay in OCI-LY3 DLBCL cells; settings: OCI-LY3 cells (BTK independent), 72 h, 50% growth inhibition vs vehicle, read-out: OCI-LY3 Prol GI50
Method in brief: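 Cells were seeded at 1×10^4 per well and dosed 3 h later: 8-point 1:4 dilutions from 10 μM (OCI-LY3), in triplicate, 72 h at 37 °C. Resazurin (13 μg/ml final) was added for the last 2 h and fluorescence read at 530/600 nm. GI50 is relative to DMSO vehicle, typically from ≥2 independent experiments.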

[4] = target: T2, IKZF3-GFP (Homo sapiens, UniProt Q96SW2+Q9UKT9); assay: IKZF3-GFP protein abundance flow cytometry assay in HEK293A cells; settings: Table 3, positive control compounds; % protein remaining at maximum degradation
T2 construct: expressed in transfected cells; host or cells: HEK293A (Invitrogen R70507), lentiviral transduction with pLenti6-IKZF3-GFP-Ires-RFP, blasticidin selection
T2 sequence (Q9UKT9 whole entry): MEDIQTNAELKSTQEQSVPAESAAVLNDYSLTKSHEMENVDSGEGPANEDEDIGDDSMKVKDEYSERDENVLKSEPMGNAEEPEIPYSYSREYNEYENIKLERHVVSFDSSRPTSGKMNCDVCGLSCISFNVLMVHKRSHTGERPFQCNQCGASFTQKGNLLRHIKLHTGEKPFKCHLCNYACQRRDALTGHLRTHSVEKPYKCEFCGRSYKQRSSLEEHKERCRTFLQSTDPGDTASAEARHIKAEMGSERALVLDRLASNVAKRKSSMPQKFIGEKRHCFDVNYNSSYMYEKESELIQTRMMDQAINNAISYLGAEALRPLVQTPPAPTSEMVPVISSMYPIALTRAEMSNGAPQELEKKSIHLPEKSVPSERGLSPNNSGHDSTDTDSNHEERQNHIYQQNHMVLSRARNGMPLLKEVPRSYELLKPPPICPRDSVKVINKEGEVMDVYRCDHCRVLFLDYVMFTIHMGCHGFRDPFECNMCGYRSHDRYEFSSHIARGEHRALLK
T2 sequence (Q96SW2 whole entry): as the sequence (Q96SW2 whole entry) above
T2 sequence (Q16531 whole entry partner): as the sequence (Q16531 whole entry partner) above
Procedure: BTK-GFP and IKZF3-GFP protein abundance flow cytometry assay in HEK293A cells:
Degradation of BTK or IKZF3 was measured in HEK293A cells (Invitrogen R70507) expressing either BTK-GFP and RFP or IKZF3-GFP and RFP from a stably integrated bicistronic BTK-GFP-iresRFP or IKZF3-GFP-iresRFP construct, respectively. Reduction of the GFP signal measured by flow cytometry served as readout for BTK or IKZF3 degradation after degrader treatment.
By analogy the bicistronic pLenti6-IKZF3-GFP-iresRFP was engineered by gateway cloning of IKZF3 from a pENTR221-IKZF3(STOP-Leu) construct into the previously described pLenti6-DEST-GFP-Ires-RFP vector using the LR Clonase kit (Invitrogen 11791-019) according to the manufacturer's manual. All vectors described have been sequenced for verification.
ii) Engineering of Stably Expressing 293A BTK-GFP-Ires-RFP and IKZF3-GFP-Ires-RFP Sensor Cells
293A BTK-GFP-Ires-RFP and IKZF3-GFP-ires-RFP sensor cells were generated by lentiviral vector transduction using the pLenti6-BTK-GFP-Ires-RFP or pLenti6-IKZF3-GFP-Ires-RFP sensor construct described before. Lentiviral particles were produced in HEK293FT cells (Invitrogen R70007) by co-transfection of 500 ng pLenti6-BTK-GFP-ires-RFP or pLenti6-IKZF3-GFP-Ires-RFP, 500 ng delta8.71 and 200 ng pVSVG diluted in 100 μl OptiMEM serum free medium (Invitrogen #11058-021) that was mixed after 5 min preincubation with 3 μl of Lipofectamine2000 (Invitrogen #11668-019) in 97 μl OptiMEM serum free medium. The mix was incubated for another 20 min at RT and then added on 1 ml of a freshly prepared suspension of HEK293FT cells in a well of a 6-well plate (concentration 1.2×10^6 cells/ml). 1 day after transfection, the medium was replaced with 1.5 ml of complete growth medium (DMEM high Glucose+10% FCS+1% L-Glutamine+1% NEAA+1% NaPyr.). 48 h post transfection supernatant containing viral transducing particles was collected and frozen at −80° C.
Two days before transduction with viral particles 1×10^5 HEK293A cells (Invitrogen R70507) were seeded in 2 ml growth medium in a well of a 6-well plate. Infection was performed with 90 μl of collected supernatant containing viral transducing particles in 1 ml medium including 8 μg/ml polybrene. 24 h post infection, stably transfected cells were selected with blasticidin at a concentration of 8 μg/ml.
Iii) Quantitative BTK-GFP and IKZF3-GFP Abundance Measurements
Stable HEK293A-BTK-GFP-iresRFP cells were maintained in complete growth medium (DMEM high Glucose+10% FCS+1% L-Glutamine+1% NEAA+1% NaPyr.) with passaging performed twice per week. On Day 0, HEK293A-BTK-GFP-iresRFP or HEK293A-IKZF3-GFP-iresRFP and HEK293A-iresRFP cells were seeded at 10,000 cells/well in a 96-well microtiter plate in 260 μl complete medium. On Day 1, cells were treated in duplicate with 10-point 1:3 dilution series of compound using the HP D300 Digital Dispenser (Tecan). DMSO concentrations were normalized across the plate to 0.1%. On Day 2, after 24 h of incubation at 37° C., treatment media was discarded, cells rinsed with 100 μl/well PBS and then detached using 40 μl trypsin/well for 5 min. Trypsin was neutralized with 100 μl/well PBS+20% FCS). Flow cytometry was performed on the samples using the BD FACS CANTO II (Becton Dickinson). Cell identification was then performed using forward (FSC) vs. side scatter (SSC) plots. […] Median GFP values for 5,000 single cells are used to determine BTK levels. Median GFP values from HEK293A-iresRFP are used as a background signal and thus defining 0% BTK signal. Median GFP values from DMSO treated HEK293A-BTK-GFP-iresRFP or HEK293A-IKZF3-GFP-iresRFP are used to define 100% BTK signal for subsequent DC50 curves (concentration at 50% BTK degradation).

Row | SMILES | DC50 [1] [µM] | BTK deg Amax [1] [%] | GI50 [2] [µM] | GI50 [3] [µM] | IKZF deg Amax [4] [%] | GI50 ([2]; Homo sapiens) [µM] | GI50 ([3]; Homo sapiens) [µM]
1 | COc1ccc(C(=O)N2CCC(O[C@H]3CC[C@H](OCc4ccc(-c5cc6c(-c7cc(F)cc(NC(=O)c8ccc(C(C)(C)O)cc8F)c7C)ncnc6[nH]5)cc4)CC3)CC2)cc1N1CCC(=O)NC1=O [Compound 56, N-(3-(6-(4-((((1r,4r)-4-((1-(3-(2,4-dioxotetrahydropyrimidin-1(2H)-yl)-4-methoxybenzoyl)piperidin-4-yl)oxy)cyclohexyl)oxy)methyl)phenyl)-7H-pyrrolo[2,3-d]pyrimidin-4-yl)-5-fluoro-2-methylphenyl)-2-fluoro-4-(2-hydroxypropan-2-yl)benzamide] | 0.004 | 4.4 | 0.0154 | 6.33 |  |  | 
2 | Nc1cccc2c1C(=O)N(C1CCC(=O)NC1=O)C2=O (stereo not shown) [Pomalidomide, reference compound] |  |  |  |  | 13.2 |  | 
3 | COc1ccc(C(=O)N2CCC3(CCN(Cc4ccc(-c5cc6c(-c7cc(F)cc(NC(=O)c8ccc(C(C)(C)O)cc8F)c7C)ncnc6[nH]5)cc4)C[C@@H]3CO)CC2)cc1N1CCC(=O)NC1=O (single isomer, unassigned) [Compound 24] | 0.0771 | 10.8 |  |  |  | 0.00598 | > 10
4 | COc1ccc(C(=O)N2CCC(O[C@H]3CC[C@H](Oc4ccc(-c5cc6c(-c7cc(F)cc(NC(=O)c8ccc(C(C)(C)O)cc8F)c7C)ncnc6[nH]5)cc4)CC3)CC2)cc1N1CCC(=O)NC1=O [Compound 46, N-(3-(6-(4-(((1r,4r)-4-((1-(3-(2,4-dioxotetrahydropyrimidin-1(2H)-yl)-4-methoxybenzoyl)piperidin-4-yl)oxy)cyclohexyl)oxy)phenyl)-7H-pyrrolo[2,3-d]pyrimidin-4-yl)-5-fluoro-2-methylphenyl)-2-fluoro-4-(2-hydroxypropan-2-yl)benzamide] | 0.0017 | 3.6 | 0.00359 | > 10 |  |  | 
5 | COc1ccc(C(=O)N2CC3(CCN(Cc4ccc(-c5cc6c(-c7cc(F)cc(NC(=O)c8ccc(C(C)(C)O)cc8F)c7C)ncnc6[nH]5)cc4)CC3)C2)cc1N1CCC(=O)NC1=O [Compound 32] | 0.0342 | 15.4 |  |  |  | 0.00631 | 7.45
6 | COc1ccc(C(=O)N2CCC(O[C@H]3CC[C@@H](OCc4ccc(-c5cc6c(-c7cc(F)cc(NC(=O)c8ccc(C(C)(C)O)cc8F)c7C)ncnc6[nH]5)cc4)CC3)CC2)cc1N1CCC(=O)NC1=O [Compound 41, N-(3-(6-(4-((((1s,4s)-4-((1-(3-(2,4-dioxotetrahydropyrimidin-1(2H)-yl)-4-methoxybenzoyl)piperidin-4-yl)oxy)cyclohexyl)oxy)methyl)phenyl)-7H-pyrrolo[2,3-d]pyrimidin-4-yl)-5-fluoro-2-methylphenyl)-2-fluoro-4-(2-hydroxypropan-2-yl)benzamide] | 0.0124 | 4.4 | 0.0175 | > 10 |  |  | 
7 | COc1ccc(C(=O)N2CCC(CCN3CCC(Oc4ccc(-c5cc6c(-c7cc(F)cc(NC(=O)c8ccc(C(C)(C)O)cc8F)c7C)ncnc6[nH]5)cc4)CC3)CC2)cc1N1CCC(=O)NC1=O [Compound 38, N-(3-(6-(4-((1-(2-(1-(3-(2,4-dioxotetrahydropyrimidin-1(2H)-yl)-4-methoxybenzoyl)piperidin-4-yl)ethyl)piperidin-4-yl)oxy)phenyl)-7H-pyrrolo[2,3-d]pyrimidin-4-yl)-5-fluoro-2-methylphenyl)-2-fluoro-4-(2-hydroxypropan-2-yl)benzamide] | 0.0009 | 4.1 |  |  |  | 0.00051 | 4.44
8 | COc1ccc(C(=O)N2CCC(CCN3CCN(Cc4ccc(-c5cc6c(-c7cc(F)cc(NC(=O)c8ccc(C(C)(C)O)cc8F)c7C)ncnc6[nH]5)cc4)CC3)CC2)cc1N1CCC(=O)NC1=O [Compound 17, N-(3-(6-(4-((4-(2-(1-(3-(2,4-Dioxotetrahydropyrimidin-1(2H)-yl)-4-methoxybenzoyl)piperidin-4-yl)ethyl)piperazin-1-yl)methyl)phenyl)-7H-pyrrolo[2,3-d]pyrimidin-4-yl)-5-fluoro-2-methylphenyl)-2-fluoro-4-(2-hydroxypropan-2-yl)benzamide] | 0.0023 | 11.0 |  |  |  | 0.0005 | 4.15
9 | COc1ccc(C(=O)N2CCC3(CCN(CCCc4ccc(-c5cc6c(-c7cc(F)cc(NC(=O)c8ccc(C(C)(C)O)cc8F)c7C)ncnc6[nH]5)cc4)CC3)CC2)cc1N1CCC(=O)NC1=O [Compound 11, N-(3-(6-(4-(3-(9(3-(2,4-Dioxotetrahydropyrimidin-1(2H)-yl)-4-methoxybenzoyl)-3,9-diazaspiro[5.5]undecan-3-yl)propyl)phenyl)-7H-pyrrolo[2,3-d]pyrimidin-4-yl)-5-fluoro-2-methylphenyl)-2-fluoro-4-(2-hydroxypropan-2-yl)benzamide] | 0.005 | 4.7 |  |  |  | 0.00084 | > 10
10 | COc1ccc(C(=O)N2CCC(C(=O)N3CCN(Cc4ccc(-c5cc6c(-c7cc(F)cc(NC(=O)c8ccc(C(C)(C)O)cc8F)c7C)ncnc6[nH]5)cc4)CC3)CC2)cc1N1CCC(=O)NC1=O [Compound 33, N-(3-(6-(4-((4-(1-(3-(2,4-dioxotetrahydropyrimidin-1(2H)-yl)-4-methoxybenzoyl)piperidine-4-carbonyl)piperazin-1-yl)methyl)phenyl)-7H-pyrrolo[2,3-d]pyrimidin-4-yl)-5-fluoro-2-methylphenyl)-2-fluoro-4-(2-hydroxypropan-2-yl)benzamide] | 0.0222 | 5.9 |  |  |  | 0.00397 | 4.29
